The record followed here is US12491185B2, “Inhibitors of mPTP” (NRG Therapeutics Ltd, priority 2023, dated 2025).

Experiment [1] relates to mPTP. The experiment in a line: mPTP activity (Ca2+ retention) assay in isolated rat liver mitochondria. Particulars: examples tested by different contract research organisations, believed comparable. Format: biochemical. The essentials:
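pIC50 was taken from Fluo5N fluorescence at 10 min after a 75 μM CaCl2 bolus, scaled between DMSO (0%) and 5 μM cyclosporin A (100%). Compounds, ten half-log concentrations from 30 μM to 1 nM final, sat 10 min at RT with fresh female Sprague Dawley rat liver mitochondria energized by succinate plus rotenone.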

The subject of experiment [2] is mPTP. Put plainly: mPTP activity assay in isolated rat brain mitochondria. Format: biochemical. The settings on record: fluorescence at 10 min timepoint. As for the experimental part:
MPTP activity was measured in brain mitochondria freshly isolated from female Sprague Dawley (250 to 300 gram) rats. Anaesthetised rats were perfused in-situ with −40 ml cold Dulbecco's Phosphate Buffered Saline (DPBS), then brains dissected and transferred into 30 ml Isolation Buffer (225 mM mannitol, 75 mM sucrose, 1 mM EGTA, adjusted to pH 7.4 with 1M NaOH). The brain was minced using tweezers and a scalpel into −5 mm pieces then transferred into a 50 ml Potterton Dounce homogenization tube on ice containing 10 ml ice-cold isolation buffer (as above with addition of Complete Protease inhibitor; 1 tablet per 50 ml buffer). Homogenisation was carried out using a teflon pestle at 1800 rpm. The slurry was centrifuged at 2000 g for 10 min at 4° C., then the supernatant centrifuged at 12,000 g for 9 min. The pellet was resuspended with a dounce homogeniser in isolation buffer as above but with the addition of 0.02% digitonin, centrifuged at 12,000 g for 11 min and finally resuspended in 5 ml modified isolation buffer (as above but with EGTA reduced to 0.1 mM).
Test compounds were prepared in 384 well polypropylene assay plates as described above for the liver mitochondria assay. A stock mitochondria/Fluo5N assay solution was prepared in 5.6 ml assay buffer (120 mM mannitol, 40 mM MOPS, 5 mM KH2PO4, 60 mM KCl, 10 mM pyruvate, 2 mM malate, 2 mM MgCl2, 20 μM ADP, 1.26 μM oligomycin A, adjusted to pH 7.4) supplemented with Fluo5N pentapotassium salt (2 μM) and 1 ml mitochondria suspension, then transferred (15 μl) into the assay plate containing test compounds and incubated for 10 min at RT. Assay plates were then transferred to a FLIPR Tetra plate reader (Molecular Devices). Dye fluorescence was then measured every 3 sec for a total of 10 min.

`Cn1nc(C(=O)N2CCC(C)(c3ccccc3)C2)[nH]c1=O` (stereo not shown) [Reference Example 101, 2-methyl-5-(3-methyl-3-phenylpyrrolidine-1-carbonyl)-2,4-dihydro-3H-1,2,4-triazol-3-one]: in the experiment on mPTP [1], the “mPTP Rat liver pIC50” value was less than 4.57. Further, the “mPTP Rat brain pIC50” value in the experiment on mPTP [2] is given as less than 4.52.

As to `CC(NC(=O)c1nn(C)c(=O)[nH]1)C(C)(C)Cc1ccccc1` (stereo not shown) [Example 38, N-(3,3-dimethyl-4-phenylbutan-2-yl)-1-methyl-5-oxo-4,5-dihydro-1H-1,2,4-triazole-3-carboxamide], the “mPTP Rat liver pIC50” value with mPTP [1] was 6.14. In addition, the “mPTP Rat brain pIC50” value in the experiment with mPTP [2] amounted to 7.30.

As for `Cn1nc(C(=O)NCC2(Cc3ccccc3F)CCC2)[nH]c1=O` [Example 20, N-((1-(2-fluorobenzyl)cyclobutyl)methyl)-1-methyl-5-oxo-4,5-dihydro-1H-1,2,4-triazole-3-carboxamide], the “mPTP Rat liver pIC50” value with mPTP [1] is 6.44. The “mPTP Rat brain pIC50” value with mPTP [2] is recorded as 7.55.

Turning to `Cn1nc(C(=O)NCC(Cc2ccccc2)C2CCC2)[nH]c1=O` (stereo not shown) [Example 51, N-(2-cyclobutyl-3-phenylpropyl)-1-methyl-5-oxo-4,5-dihydro-1H-1,2,4-triazole-3-carboxamide], in the experiment with mPTP [1], the “mPTP Rat liver pIC50” value was 5.62. In the experiment on mPTP [2], the “mPTP Rat brain pIC50” value is 6.84.

Regarding `CC(CNC(=O)c1noc(=O)[nH]1)(Cc1ccc(F)cc1F)C1CC1` (single isomer, unassigned) [Example 273], the “mPTP Rat liver pIC50” value in the experiment on mPTP [1] is recorded as 6.50. For the same molecule, the “mPTP Rat brain pIC50” value in the experiment on mPTP [2] amounted to 7.92.

Turning to `Cn1nc(C(=O)NC[C@H](Cc2ccc(F)c(F)c2)C2CC2)[nH]c1=O` [Example 150], the “mPTP Rat liver pIC50” value in the experiment on mPTP [1] was 7.08. Moreover, the “mPTP Rat brain pIC50” value in the experiment with mPTP [2] worked out at 7.61.

Regarding `Cn1nc(C(=O)NCC2(Cc3ccc(F)c(F)c3F)CCC2)[nH]c1=O` [Example 156], in the experiment with mPTP [1], the “mPTP Rat liver pIC50” value came out at 6.28. The “mPTP Rat brain pIC50” value in the experiment with mPTP [2] is recorded as 7.24.

For the molecule `Cn1nc(C(=O)NCC(Cc2cccc(F)c2)C2CC2)[nH]c1=O` (stereo not shown) [Example 78, N-(2-Cyclopropyl-3-(3-fluorophenyl)propyl)-1-methyl-5-oxo-4,5-dihydro-1H-1,2,4-triazole-3-carboxamide], the “mPTP Rat liver pIC50” value in the experiment with mPTP [1] was found to be 6.59. Also, the “mPTP Rat brain pIC50” value with mPTP [2] came out at 7.28.

As for `Cc1c(O)cncc1C(=O)NCC1(Cc2ccccc2)CCC1` [Example 4, N-((1-benzylcyclobutyl)methyl)-5-hydroxy-4-methylnicotinamide], the “mPTP Rat liver pIC50” value in the experiment with mPTP [1] is 5.77. Further, the “mPTP Rat brain pIC50” value in the experiment on mPTP [2] is listed as 6.56.

On to `Cn1nc(C(=O)NC[C@@H](Cc2ccc(F)cc2F)CC(F)(F)F)[nH]c1=O` [Example 246], for which, in the experiment on mPTP [1], the “mPTP Rat liver pIC50” value is given as 4.56. The “mPTP Rat brain pIC50” value with mPTP [2] stood at 5.85.

`Cn1nc(C(=O)NCC2(Cc3cc(F)ccc3F)CCC2)[nH]c1=O` [Example 81, N-((1-(2,5-Difluorobenzyl)cyclobutyl)methyl)-1-methyl-5-oxo-4,5-dihydro-1H-1,2,4-triazole-3-carboxamide]: in the experiment on mPTP [1], the “mPTP Rat liver pIC50” value is on record as 6.85. In addition, in the experiment with mPTP [2], the “mPTP Rat brain pIC50” value is given as 6.51.

In the case of `Cn1nc(C(=O)NCC2(Cc3cccc(F)c3F)CCC2)[nH]c1=O` [Example 95, N-((1-(2,3-Difluorobenzyl)cyclobutyl)methyl)-1-methyl-5-oxo-4,5-dihydro-1H-1,2,4-triazole-3-carboxamide], the “mPTP Rat liver pIC50” value in the experiment on mPTP [1] came out at 6.16. The “mPTP Rat brain pIC50” value in the experiment on mPTP [2] is 7.39.

In the case of `CC(CNC(=O)c1noc(=O)[nH]1)(Cc1ccc(F)cc1)C1CC1` (single isomer, unassigned) [Example 276, N-(2-cyclopropyl-3-(4-fluorophenyl)-2-methylpropyl)-5-oxo-4,5-dihydro-1,2,4-oxadiazole-3-carboxamide], the “mPTP Rat liver pIC50” value in the experiment with mPTP [1] was 5.82. In addition, the “mPTP Rat brain pIC50” value in the experiment on mPTP [2] is recorded as 7.27.

As to `CSc1ccccc1CC1(CNC(=O)c2nn(C)c(=O)[nH]2)CCC1` [Example 181], the “mPTP Rat liver pIC50” value with mPTP [1] is given as 5.66. In the experiment with mPTP [2], the “mPTP Rat brain pIC50” value is listed as 6.91.
